From ChEMBL document CHEMBL1201861, “Genomics of Drug Sensitity in Cancer screening data, Wellcome Trust Sanger Institute”
pIC50: −log10 of the molar value.

Key:
Experiment in all cases: cells
Conditions in all cases: Homo sapiens
ES1 = type: functional, cell-based;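 note: growth inhibition of ES1 cells, read out with a cell viability assay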
Description: SANGER: Inhibition of human ES1 cell growth in a cell viability assay.

LS-411N = type: functional, cell-based
L-428 = type: functional, cell-based
Description: SANGER: Inhibition of human L-428 cell growth in a cell viability assay.

GI-1 = type: functional, cell-based;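 note: growth inhibition of human GI-1 cells, measured with a cell viability readout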
Description: SANGER: Inhibition of human GI-1 cell growth in a cell viability assay.

KNS-81-FD = type: functional, cell-based;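 note: growth inhibition of KNS-81-FD cells, read out with a cell viability assay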
Description: SANGER: Inhibition of human KNS-81-FD cell growth in a cell viability assay.

GT3TKB = type: functional, cell-based;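 note: growth inhibition of the cell line, read out with a cell viability assay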
Description: SANGER: Inhibition of human GT3TKB cell growth in a cell viability assay.

BB65-RCC = type: functional, cell-based;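 note: growth inhibition of the cell line, measured with a cell viability assay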
Description: SANGER: Inhibition of human BB65-RCC cell growth in a cell viability assay.

LXF-289 cell line = type: functional, cell-based
Description: SANGER: Inhibition of human LXF-289 cell growth in a cell viability assay.

IA-LM = type: functional, cell-based;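 note: cell viability assay measuring growth inhibition of human IA-LM cells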
Description: SANGER: Inhibition of human IA-LM cell growth in a cell viability assay.

NB6 = type: functional, cell-based
Description: SANGER: Inhibition of human NB6 cell growth in a cell viability assay.

UACC-257 = type: functional, cell-based
Description: SANGER: Inhibition of human UACC-257 cell growth in a cell viability assay.

COLO-829 = type: functional, cell-based
Description: SANGER: Inhibition of human COLO-829 cell growth in a cell viability assay.

LS-1034 = type: functional, cell-based
Description: SANGER: Inhibition of human LS-1034 cell growth in a cell viability assay.

MMAC-SF = type: functional, cell-based;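 note: growth inhibition of human MMAC-SF cells, read out with a cell viability assay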
Description: SANGER: Inhibition of human MMAC-SF cell growth in a cell viability assay.

KM-H2 = type: functional, cell-based;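 note: growth inhibition of KM-H2 cells, read out by a cell viability assay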
Description: SANGER: Inhibition of human KM-H2 cell growth in a cell viability assay.

K562 = type: functional, cell-based
Description: SANGER: Inhibition of human K-562 cell growth in a cell viability assay.

JVM-3 = type: functional, cell-based;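 note: growth inhibition of human JVM-3 cells, read out with a cell viability assay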
Description: SANGER: Inhibition of human JVM-3 cell growth in a cell viability assay.

LB831-BLC = type: functional, cell-based;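 note: growth inhibition of LB831-BLC cells, read out with a cell viability assay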
Description: SANGER: Inhibition of human LB831-BLC cell growth in a cell viability assay.

ACN = type: functional, cell-based;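 note: growth inhibition of the human ACN cell line, read out via cell viability testing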
Description: SANGER: Inhibition of human ACN cell growth in a cell viability assay.

697 = type: functional, cell-based
Description: SANGER: Inhibition of human 697 cell growth in a cell viability assay.

SF-126 = type: functional, cell-based;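 note: growth inhibition of human SF126 cells, read out with a cell viability assay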
Description: SANGER: Inhibition of human SF126 cell growth in a cell viability assay.

ML-2 = type: functional, cell-based;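 note: growth inhibition of ML-2 cells, measured with a cell viability readout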
Description: SANGER: Inhibition of human ML-2 cell growth in a cell viability assay.

ES3 = type: functional, cell-based;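 note: growth inhibition of ES3 cells, read out with a cell viability assay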
Description: SANGER: Inhibition of human ES3 cell growth in a cell viability assay.

MFH-ino = type: functional, cell-based;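 note: growth inhibition of human MFH-ino cells, read out by a cell viability assay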
Description: SANGER: Inhibition of human MFH-ino cell growth in a cell viability assay.

ES4 = type: functional, cell-based;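 note: growth inhibition of human ES4 cells, read out by a cell viability assay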
Description: SANGER: Inhibition of human ES4 cell growth in a cell viability assay.

COLO-824 = type: functional, cell-based
Description: SANGER: Inhibition of human COLO-824 cell growth in a cell viability assay.

Ramos-2G6-4C10 = type: functional, cell-based;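 note: growth inhibition of the cell line, measured by a cell viability read-out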
Description: SANGER: Inhibition of human Ramos-2G6-4C10 cell growth in a cell viability assay.

CCRF-CEM = type: functional, cell-based;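 note: inhibition of CCRF-CEM cell growth, measured by a cell viability assay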
Description: SANGER: Inhibition of human CCRF-CEM cell growth in a cell viability assay.

OCI-AML2 = type: functional, cell-based;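 note: growth inhibition of OCI-AML2 cells, read out with a cell viability assay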
Description: SANGER: Inhibition of human OCI-AML2 cell growth in a cell viability assay.

TE-10 = type: functional, cell-based;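 note: growth inhibition of TE-10 cells, measured by a cell viability assay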
Description: SANGER: Inhibition of human TE-10 cell growth in a cell viability assay.

HT = type: functional, cell-based
Description: SANGER: Inhibition of human HT cell growth in a cell viability assay.

BB30-HNC = type: functional, cell-based;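 note: growth inhibition of the cultured cell line, read out by a cell viability assay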
Description: SANGER: Inhibition of human BB30-HNC cell growth in a cell viability assay.

DMS-114 = type: functional, cell-based
TGBC24TKB = type: functional, cell-based;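 note: growth inhibition of human TGBC24TKB cells, read out with a cell viability assay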
Description: SANGER: Inhibition of human TGBC24TKB cell growth in a cell viability assay.

A101D = type: functional, cell-based;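 note: growth inhibition of the cell line, measured with a viability assay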
Description: SANGER: Inhibition of human A101D cell growth in a cell viability assay.

KLE = type: functional, cell-based;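 note: growth inhibition of human KLE cells, read out with a cell viability assay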
Description: SANGER: Inhibition of human KLE cell growth in a cell viability assay.

QIMR-WIL = type: functional, cell-based;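 note: growth inhibition of QIMR-WIL cells, read out with a cell viability assay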
Description: SANGER: Inhibition of human QIMR-WIL cell growth in a cell viability assay.

ETK-1 = type: functional, cell-based;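 note: growth inhibition of human ETK-1 cells, read out with a cell viability assay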
Description: SANGER: Inhibition of human ETK-1 cell growth in a cell viability assay.

SHP77 = type: functional, cell-based, SHP-77;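 note: growth inhibition of human SHP-77 cells measured by a cell viability assay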
Description: SANGER: Inhibition of human SHP-77 cell growth in a cell viability assay.

NB5 = type: functional, cell-based;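 note: growth inhibition of NB5 cells, read out as cell viability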
Description: SANGER: Inhibition of human NB5 cell growth in a cell viability assay.

ONS-76 = type: functional, cell-based;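 note: growth inhibition of human ONS-76 cells, read out with a cell viability assay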
Description: SANGER: Inhibition of human ONS-76 cell growth in a cell viability assay.

A388 = type: functional, cell-based;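 note: growth inhibition of human A388 cells, read out with a cell viability assay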
Description: SANGER: Inhibition of human A388 cell growth in a cell viability assay.

TE-6 = type: functional, cell-based;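 note: growth inhibition of TE-6 cells, read out with a cell viability assay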
Description: SANGER: Inhibition of human TE-6 cell growth in a cell viability assay.

U-87 MG = type: functional, cell-based, U-87MG ATCC;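 note: growth inhibition of the cells measured with a viability assay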
Description: SANGER: Inhibition of human U-87-MG cell growth in a cell viability assay.

NCI-H226 = type: functional, cell-based;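 note: cell viability read-out used to gauge growth inhibition of the cells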
Description: SANGER: Inhibition of human NCI-H226 cell growth in a cell viability assay.

HCE-T = type: functional, cell-based;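 note: cell viability assay read-out, reporting inhibition of HCE-T cell growth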
Description: SANGER: Inhibition of human HCE-T cell growth in a cell viability assay.

HCE-4 = type: functional, cell-based;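 note: cell viability assay measuring inhibition of growth in the human HCE-4 cell line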
Description: SANGER: Inhibition of human HCE-4 cell growth in a cell viability assay.

SK-PN-DW = type: functional, cell-based;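 note: growth inhibition measured with a viability assay on these cells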
Description: SANGER: Inhibition of human SK-PN-DW cell growth in a cell viability assay.

HuTu80 = type: functional, cell-based, HUTU-80;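 note: growth inhibition of HuTu80 human cells, determined with a cell viability readout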
Description: SANGER: Inhibition of human HUTU-80 cell growth in a cell viability assay.

C2BBe1 = type: functional, cell-based;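 note: growth inhibition of C2BBe1 cells, read out through a viability assay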
Description: SANGER: Inhibition of human C2BBe1 cell growth in a cell viability assay.

DOHH-2 = type: functional, cell-based;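 note: growth inhibition of human DOHH-2 cells, read out with a cell viability assay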
Description: SANGER: Inhibition of human DOHH-2 cell growth in a cell viability assay.

RPMI-8866 = type: functional, cell-based
Description: SANGER: Inhibition of human RPMI-8866 cell growth in a cell viability assay.

COLO-668 = type: functional, cell-based
Description: SANGER: Inhibition of human COLO-668 cell growth in a cell viability assay.

LOX IMVI = type: functional, cell-based
Description: SANGER: Inhibition of human LOXIMVI cell growth in a cell viability assay.

DU-4475 = type: functional, cell-based
Description: SANGER: Inhibition of human DU-4475 cell growth in a cell viability assay.

TK-10 = type: functional, cell-based;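 note: growth inhibition of TK-10 cells, read out in a cell viability assay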
Description: SANGER: Inhibition of human TK10 cell growth in a cell viability assay.

MHH-PREB-1 = type: functional, cell-based;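 note: cell viability assay measuring inhibition of proliferation of human MHH-PREB-1 cells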
Description: SANGER: Inhibition of human MHH-PREB-1 cell growth in a cell viability assay.

NCI-H1395 = type: functional, cell-based;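 note: cell viability assay read-out quantifying reduced proliferation of human NCI-H1395 cells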
Description: SANGER: Inhibition of human NCI-H1395 cell growth in a cell viability assay.

SNB-75 = type: functional, cell-based;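 note: cell viability assay measuring growth inhibition of human SNB-75 cells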
Description: SANGER: Inhibition of human SNB75 cell growth in a cell viability assay.

KM12 = type: functional, cell-based;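 note: KM12 cell growth inhibition, read out with a cell viability assay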
Description: SANGER: Inhibition of human KM12 cell growth in a cell viability assay.

NB69 = type: functional, cell-based;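 note: growth inhibition of NB69 cells, determined by a cell viability assay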
Description: SANGER: Inhibition of human NB69 cell growth in a cell viability assay.

SW 954 = type: functional, cell-based;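 note: growth inhibition of SW954 human cancer cells, read out as cell viability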
Description: SANGER: Inhibition of human SW954 cell growth in a cell viability assay.

A4-Fuk = type: functional, cell-based;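 note: growth inhibition of A4-Fuk cells, read out by a cell viability assay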
Description: SANGER: Inhibition of human A4-Fuk cell growth in a cell viability assay.

SNU-C2B = type: functional, cell-based;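 note: cell viability readout used to measure compound-driven suppression of SNU-C2B cell proliferation, IC50 marking half-maximal growth inhibition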
Description: SANGER: Inhibition of human SNU-C2B cell growth in a cell viability assay.

LB1047-RCC = type: functional, cell-based;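 note: inhibition of cell growth, determined with a cell viability assay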
Description: SANGER: Inhibition of human LB1047-RCC cell growth in a cell viability assay.

Q: How did the pIC50 (ES1) turn out when `N#C/C(=C1/Nc2ccccc2S1)c1ccnc(NCCc2cccnc2)n1` was run?
A: < 5.10

Q: And the pIC50 (LS-411N)?
A: < 5.10

Q: And the pIC50 (L-428)?
A: < 5.10

Q: And the pIC50 (GI-1)?
A: 5.43

Q: And the pIC50 (KNS-81-FD)?
A: < 5.10

Q: What about the pIC50 (GT3TKB) of the same molecule?
A: < 5.10

Q: What about the pIC50 (BB65-RCC) of the same molecule?
A: 5.17

Q: What about the pIC50 (LXF-289 cell line) of the same molecule?
A: < 5.10

Q: What about the pIC50 (IA-LM) of the same molecule?
A: 5.56

Q: And the pIC50 (NB6)?
A: < 5.10

Q: What about the pIC50 (UACC-257) of the same molecule?
A: < 5.10

Q: What about the pIC50 (COLO-829) of the same molecule?
A: < 5.10

Q: What about the pIC50 (LS-1034) of the same molecule?
A: < 5.10

Q: What about the pIC50 (MMAC-SF) of the same molecule?
A: < 5.10

Q: And the pIC50 (KM-H2)?
A: < 5.10

Q: And the pIC50 (K562)?
A: < 5.10

Q: What about the pIC50 (JVM-3) of the same molecule?
A: < 5.10

Q: And the pIC50 (LB831-BLC)?
A: 5.24

Q: And the pIC50 (ACN)?
A: < 5.10

Q: And the pIC50 697?
A: < 5.10

Q: What about the pIC50 (SF-126) of the same molecule?
A: < 5.10

Q: What about the pIC50 (ML-2) of the same molecule?
A: < 5.10

Q: What about the pIC50 (ES3) of the same molecule?
A: < 5.10

Q: What about the pIC50 (MFH-ino) of the same molecule?
A: < 5.10

Q: What about the pIC50 (ES4) of the same molecule?
A: < 5.10

Q: What about the pIC50 (COLO-824) of the same molecule?
A: < 5.10

Q: And the pIC50 (Ramos-2G6-4C10)?
A: < 5.10

Q: What about the pIC50 (CCRF-CEM) of the same molecule?
A: < 5.10

Q: And the pIC50 (OCI-AML2)?
A: 5.33

Q: And the pIC50 (TE-10)?
A: 5.65

Q: What about the pIC50 (HT) of the same molecule?
A: < 5.10

Q: What about the pIC50 (BB30-HNC) of the same molecule?
A: < 5.10

Q: And the pIC50 (DMS-114)?
A: < 5.10

Q: What about the pIC50 (TGBC24TKB) of the same molecule?
A: < 5.10

Q: What about the pIC50 (A101D) of the same molecule?
A: 5.65

Q: And the pIC50 (KLE)?
A: < 5.10

Q: And the pIC50 (QIMR-WIL)?
A: < 5.10

Q: What about the pIC50 (ETK-1) of the same molecule?
A: < 5.10

Q: And the pIC50 (SHP77)?
A: < 5.10

Q: And the pIC50 (NB5)?
A: < 5.10

Q: What about the pIC50 (ONS-76) of the same molecule?
A: < 5.10

Q: And the pIC50 (A388)?
A: < 5.10

Q: What about the pIC50 (TE-6) of the same molecule?
A: < 5.10

Q: And the pIC50 (U-87 MG)?
A: < 5.10

Q: What about the pIC50 (NCI-H226) of the same molecule?
A: < 5.10

Q: What about the pIC50 (HCE-T) of the same molecule?
A: 5.13

Q: What about the pIC50 (HCE-4) of the same molecule?
A: < 5.10

Q: And the pIC50 (SK-PN-DW)?
A: < 5.10

Q: What about the pIC50 (HuTu80) of the same molecule?
A: < 5.10

Q: What about the pIC50 (C2BBe1) of the same molecule?
A: < 5.10

Q: What about the pIC50 (DOHH-2) of the same molecule?
A: < 5.10

Q: And the pIC50 (RPMI-8866)?
A: < 5.10

Q: And the pIC50 (COLO-668)?
A: 5.35

Q: And the pIC50 (LOX IMVI)?
A: < 5.10

Q: And the pIC50 (DU-4475)?
A: < 5.10

Q: And the pIC50 (TK-10)?
A: 5.43

Q: What about the pIC50 (MHH-PREB-1) of the same molecule?
A: < 5.10

Q: And the pIC50 (NCI-H1395)?
A: < 5.10

Q: What about the pIC50 (SNB-75) of the same molecule?
A: 5.28

Q: And the pIC50 (KM12)?
A: < 5.10

Q: And the pIC50 (NB69)?
A: < 5.10

Q: And the pIC50 (SW 954)?
A: < 5.10

Q: And the pIC50 (A4-Fuk)?
A: < 5.10

Q: And the pIC50 (SNU-C2B)?
A: 5.11

Q: What about the pIC50 (LB1047-RCC) of the same molecule?
A: 5.78
